Consider one compound from paper PMC7955952 (Pharmacology Research & Perspectives, 2021).

By IC50 is commonly meant the concentration needed to halve the response being measured. The low end stands for greater potency, the high end for weaker potency.

The target of the experiment is Focal adhesion kinase (FAK) (Homo sapiens, UniProt Q05397). As to the kind of experiment: biochemical.
Focal adhesion kinase (FAK), sequence (Q05397 393-698): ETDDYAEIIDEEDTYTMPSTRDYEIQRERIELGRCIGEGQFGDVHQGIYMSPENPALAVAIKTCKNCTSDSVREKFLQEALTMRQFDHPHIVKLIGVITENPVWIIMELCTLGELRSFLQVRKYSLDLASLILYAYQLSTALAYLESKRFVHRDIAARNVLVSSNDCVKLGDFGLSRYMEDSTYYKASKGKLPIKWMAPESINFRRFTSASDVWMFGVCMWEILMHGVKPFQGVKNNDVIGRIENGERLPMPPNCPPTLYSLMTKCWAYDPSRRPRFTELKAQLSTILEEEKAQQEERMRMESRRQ

On to `CS(=O)(=O)c1cccc(CNc2nc(Nc3ccc4c(c3)CCC(=O)N4)ncc2C(F)(F)F)c1` [PF573228, 6‐[[4‐[(3‐methylsulfonylphenyl)methylamino]‐5‐(trifluoromethyl)pyrimidin‐2‐yl]amino]‐3,4‐dihydro‐1H‐quinolin‐2‐one], for which the IC50 amounted to 9 ± 0.03 nM.
